Data reported in US7723328B2, “Methods of facilitating cell survival using neurotrophin mimetics” (The University of North Carolina at Chapel Hill, priority 2005, dated 2010).
“Also recorded” adds a separate entry of the source.

Assays:
[1] = target: T1, p75^NTR-expressing 3T3 cells (Homo sapiens, UniProt P08138); assay: p75NTR antibody (Ab 9651) competition on 3T3 cells, western blot; format: binding; details: 100 nM compound, 90 min, 4° C.
T1 construct: host or cells: NIH3T3 fibroblasts
T1 sequence (P08138 29-427): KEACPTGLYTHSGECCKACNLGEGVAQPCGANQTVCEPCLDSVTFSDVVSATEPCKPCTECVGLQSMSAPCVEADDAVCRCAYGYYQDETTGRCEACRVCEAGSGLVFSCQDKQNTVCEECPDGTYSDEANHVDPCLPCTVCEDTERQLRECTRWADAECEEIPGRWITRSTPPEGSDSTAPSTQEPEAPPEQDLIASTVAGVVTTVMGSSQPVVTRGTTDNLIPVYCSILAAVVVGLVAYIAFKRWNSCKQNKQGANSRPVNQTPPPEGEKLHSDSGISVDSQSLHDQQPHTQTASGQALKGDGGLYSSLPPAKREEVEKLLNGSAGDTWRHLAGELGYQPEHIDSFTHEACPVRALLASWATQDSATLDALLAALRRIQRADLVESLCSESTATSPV
Protocol: NIH3T3 fibroblasts expressing either null vector or p75^NTR (Huang, C. S. et al. (1999) J Biol Chem 274, 36707-36714) were obtained from Dr. William Mobley (Stanford University, Calif., United States of America). Cells were grown in monolayers, harvested in PBS with 2 mM EDTA, pelleted, and resuspended in ice-cold DMEM HEPES with 1 mg/ml BSA. 6-9×10^6 cells from one confluent 6-well plate were used for each experimental point.
For binding analysis, p75^NTR antibody (1:100) was allowed to bind in the presence or absence of 100 nM p75-binding compounds for 90 minutes at 4° C. with gentle rotation, followed by four washes in PBS. The final cell pellet was resuspended in lysis buffer.
Western blots were performed as described above. To detect the presence of p75^NTR antibody, blots were probed with horseradish peroxidase-linked goat anti-rabbit IgG obtained from Amersham/Pharmacia Biotech (Piscataway, N.J., United States of America). Signals were detected by the ECL chemiluminescence system obtained from Amersham Biosciences (Piscataway, […]., United States of America). To control for variation in protein loading, the blot was stripped and reprobed with β-actin monoclonal antibody obtained from Sigma (St. Louis, Mo., United States of America).

[2] = tested on: hippocampal neurons; assay: Hippocampal neuron survival with p75NTR antisera (antibody inhibition); format: cell-based, mouse; details: antiserum 1:100, 48 h
Protocol: (§1) Hippocampal neurons were prepared from E16-17 mouse embryos as previously described (Yang. T. et al. (2003) J Neurosci 23, 3353-3363). […] For studies employing p75^NTR+/+ and p75^NTR−/− neurons, mice carrying a mutation in exon 3 of the p75^NTR gene (Lee, K. F. et al. (1992) Cell 69, 737-749) were bred onto a B6 congenic background (>10 B6 backcrosses).
(§2) After 48 hours in culture, cell survival was assessed as previously described (Longo, F. M., Manthorpe. M., Xie. Y. M., Varon, S. (1997) J Neurosci Res 48, 1-17) using a combination of standard morphological criteria along with visual determination of whether a given cell converted MTT to its blue formazan product. The number of surviving neurons was determined by counting the total number of cells in each well that were both morphologically intact and filed with blue product (Longo F. M., Manthorpe. M., Xie, Y. M., Varon, S. (1997) J Neurosci Res 48, 1-17). For each neurotrophin or compound concentration, duplicate wells were counted and the resulting values averaged. Activity of each compound was confirmed by blinded counts. Counts were normalized to survival achieved with 25 ng/ml BDNF or to baseline survival. Fitting of dose-responsive curves was performed with Sigmaplot obtained from SYSTAT Software Inc. (Richmond, Calif., United States of America).
(§3) For all studies applying signaling inhibitors, p75^NTR antibodies or p75^NTR−/− neurons, survival was assessed at 48 hours.

[3] = tested on: NFκB-p65; assay: NFκB-p65 phosphorylation western blot in hippocampal cultures; format: cell-based, mouse
Protocol: (§4) For assays of Trk, AKT, NFκB, and ERK activation, hippocampal neurons derived from E16-17 mice were cultured in poly-L-lysine coated six-well plates (Corning, Inc., Corning, N.Y., United States of America) in DMEM containing 10% FBS, followed by incubation in serum-free DMEM for 2 hours before addition of neurotrophins or compounds. At the indicated time points, neurons were harvested in lysis buffer consisting of: 20 mM Tris, pH 8.0, 137 mM NaCl, 1% Igepal CA-630, 10% glycerol, 1 mM PMSF, 10 μg/ml aprotinin, 1 μg/ml leupeptin, 500 μM orthovanadate (Zhou, J., Valletta, J. S., Grimes, M. L., Mobley, W. C. (1995) J Neurochem 65, 1146-1156).
(§5) Lysates were centrifuged, the supernatant collected, and protein concentrations determined using the BCA Protein Assay Reagent obtained from Pierce (Rockford, Ill., United States of America). Western blots were performed as described previously (Yang, T. et al. (2003) J Neurosci 23, 3353-3363). Western blot signals were detected using the ECL Chemiluminescence System obtained by Amersham (Piscataway, N.J., United States of America) (Yang, T. et al. (2003) J Neurosci 23, 3353-3363).

[4] = tested on: E16-17 mouse hippocampal neurons; assay: Hippocampal neuron survival (morphology plus MTT conversion); format: cell-based; details: for neurotrophic activity (neuron survival response): 48 h, counts normalized to 25 ng/ml BDNF or baseline, up to 5 nM
Protocol: as §1, §2

[5] = tested on: TrkA-Fc; assay: NGF/TrkA-Fc binding by NGF ELISA; details: up to 10,000 nM compound
Protocol: (§6) Briefly, 96-well plates were incubated with 0.1 pmol (at 1 nM) of p75/Fc or TrkA/Fc recombinant protein obtained from R&D System (Minneapolis, Minn., United States of America) overnight at 4° C. followed by incubation with blocking buffer for 1 hour at room temperature. […] Plates were then washed five times with Tris-buffered saline (TBS) containing 0.05% Tween-20 and incubated with anti-NGF rabbit polyclonal antibody overnight at 4° C. Following five washes with TBS, wells were incubated for 2.5 hours at room temperature with anti-rabbit IgG HRP conjugate and washed five times. 3,3′,5,5′-tetramethyl-benzidine substrate was added and the optical density measured at 450 nm.

[6] = tested on: mature oligodendrocytes; assay: Oligodendrocyte cell death assay (MBP/TUNEL) with or without proNGF; format: cell-based, rat; details: for promotion of oligodendrocyte cell death by compound alone: absence of proNGF
Protocol: Cortical oligondendrocytes from rat pups were prepared as previously described (Yoon et al. (1998) J Neurosci 18, 3273-3281, Harrington, A. W., Kim, J. Y., Yoon, S. O. (2002) J Neurosci 22, 156-166). Cells were treated with recombinant, cleavage-resistant proNGF at 0.05 nM (2.8 ng/ml). Controls were treated with equivalent volumes of proNGF purification buffer containing 350 mM imidazole. 24 hours after treatment, the cells were fixed and processed for MBP and TUNEL staining as previously described (Beattie, M. S. et al. (2002) Neuron 36, 375-386). 200-250 cells were counted per well, for a minimum of 600 cells per experimental condition.

[7] = tested on: E17 hippocampal neurons; assay: Aβ-induced death of hippocampal neurons; format: cell-based; details: for protection against Aβ1-42-induced death: NGF at 100 pg/ml
Protocol: Using previously well established protocols, Aβ was preincubated for 3 days in water to allow formation of oligomers. E17 hippocampal neurons were incubated for 5 days to allow for maturation prior to addition of Aβ with test compounds.

[8] = target: T2, p75^NTR-Fc (Homo sapiens, UniProt P08138); assay: NGF/p75NTR-Fc binding by NGF ELISA, Gaddum/Schild fit
T2 construct: purchased R&D Systems
T2 sequence (P08138 with tags, fused parts or gaps limits assumed): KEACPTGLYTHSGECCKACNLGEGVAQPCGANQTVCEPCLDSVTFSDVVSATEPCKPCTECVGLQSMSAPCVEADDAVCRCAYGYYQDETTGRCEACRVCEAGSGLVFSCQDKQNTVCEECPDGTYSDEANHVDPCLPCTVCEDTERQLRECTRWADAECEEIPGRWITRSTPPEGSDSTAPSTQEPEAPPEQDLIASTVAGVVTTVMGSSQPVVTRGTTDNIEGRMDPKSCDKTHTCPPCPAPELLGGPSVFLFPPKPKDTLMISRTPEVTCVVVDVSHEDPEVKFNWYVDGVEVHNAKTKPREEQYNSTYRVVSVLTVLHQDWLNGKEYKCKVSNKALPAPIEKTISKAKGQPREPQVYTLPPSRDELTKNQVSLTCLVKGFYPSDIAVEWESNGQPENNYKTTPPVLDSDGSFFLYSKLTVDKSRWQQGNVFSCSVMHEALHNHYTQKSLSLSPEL
Protocol: as §6
A regression analysis of NGF-p75^NTR binding in the presence of the p75-binding compounds was performed. The data was fit using the Nonlinear Regression module of Sigmaplot, to a modification of the Gaddum/Schild equation (adapted from Motulsky, H. J., and Christopoulos. A. (2003) A Practical Guide to Curve Fitting, 2nd edn. (San Diego, Calif., GraphPad Software, Inc.): […]

[9] = tested on: p75^NTR−/− cells; assay: Survival of p75NTR+/+ versus p75NTR-/- hippocampal neurons; format: cell-based, mouse; details: neurotrophins 1.8 nM, compounds 5 nM
Protocol: as §1, §2, §3

[10] = target: T3, p75^NTR (Homo sapiens, UniProt P08138); assay: proNGF binding to p75NTR by ELISA; details: 100 ng/ml proNGF
T3 construct: purchased R&D Systems
T3 sequence (P08138 with tags, fused parts or gaps limits assumed): as above
Protocol: as §6

[11] = tested on: hippocampal neurons; assay: Hippocampal neuron survival with signaling pathway inhibitors; format: cell-based, mouse; details: BDNF/NGF 25 ng/ml, compounds 5 nM, 48 h; for effect of PD98059 (ERK inhibitor) on survival promoted by the substance: PD98059 50 μM
Protocol: as §1, §2, §3

[12] = tested on: AKT; assay: AKT activation western blot in hippocampal cultures; format: cell-based, mouse
Protocol: as §4, §5

[13] = tested on: chicken DRG neuronal; assay: Chicken DRG neuronal survival assay; format: cell-based; details: preliminary screening
[14] = tested on: ERK42; assay: ERK42 activation western blot in hippocampal cultures; format: cell-based, mouse; details: compounds 20 nM, BDNF/NGF 50 ng/ml; 10 and 30 min
Protocol: as §4, §5

[15] = target: T4, TrkB (Mus musculus, UniProt P15209); assay: Trk Y490 phosphorylation western blot in hippocampal neuron cultures; format: cell-based; details: 10 or 30 minutes
T4 construct: endogenous in cells; host or cells: primary hippocampal neurons from E16-17 mouse embryos
T4 sequence (P15209 32-821): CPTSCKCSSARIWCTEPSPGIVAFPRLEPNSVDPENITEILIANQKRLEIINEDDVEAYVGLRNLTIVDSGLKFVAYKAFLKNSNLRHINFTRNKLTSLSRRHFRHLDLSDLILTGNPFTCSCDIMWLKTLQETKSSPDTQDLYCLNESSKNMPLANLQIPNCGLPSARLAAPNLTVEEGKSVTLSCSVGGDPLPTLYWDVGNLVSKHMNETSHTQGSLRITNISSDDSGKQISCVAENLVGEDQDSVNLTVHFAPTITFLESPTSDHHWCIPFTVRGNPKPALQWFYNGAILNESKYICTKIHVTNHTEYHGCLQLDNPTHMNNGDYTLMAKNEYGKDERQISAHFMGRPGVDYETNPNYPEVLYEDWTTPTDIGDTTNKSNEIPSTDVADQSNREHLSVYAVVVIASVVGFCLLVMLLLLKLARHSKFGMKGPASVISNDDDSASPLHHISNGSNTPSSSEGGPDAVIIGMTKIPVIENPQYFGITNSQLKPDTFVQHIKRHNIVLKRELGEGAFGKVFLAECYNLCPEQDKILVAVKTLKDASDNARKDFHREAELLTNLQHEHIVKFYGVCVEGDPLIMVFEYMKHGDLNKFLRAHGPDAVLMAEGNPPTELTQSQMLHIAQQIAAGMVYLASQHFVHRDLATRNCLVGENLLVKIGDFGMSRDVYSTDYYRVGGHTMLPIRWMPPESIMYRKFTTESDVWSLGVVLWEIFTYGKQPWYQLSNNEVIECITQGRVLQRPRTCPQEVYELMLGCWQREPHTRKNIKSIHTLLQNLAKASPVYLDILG
Protocol: as §4, §5

[16] = compounds 20 nM, BDNF/NGF 50 ng/ml, 10 and 30 min

CCN(CC)CCCNC(=O)Cn1cnc2c1c(=O)n(C)c(=O)n2C [Compound 5]
displacement of anti-p75NTR Ab 9651 [1]: no effect
survival versus CM in the presence of Ab 9651 [2]: not significant
NFκB-p65 activation [3, 16]: did not induce
neurotrophic activity (neuron survival response) [4]: little or no neurotrophic activity; also recorded: no response
effect on NGF binding to TrkA-Fc [5]: no significant effect up to 10,000 nM
oligodendrocyte survival with proNGF at 10 nM compound ([6]; 10 nM compound, proNGF present): appeared to decrease survival
promotion of oligodendrocyte cell death by compound alone ([6]; 24 h): did not promote cell death
protection against Aβ1-42-induced death ([7]; Aβ1-42 10 μM): failed to block

Aβ1-42: amyloid-β, preincubated for 3 days in water to allow formation of oligomers [reference compound]
loss of neurons ([7]; Aβ1-42 10 μM or 30 μM, 3 day exposure, no compound): ~40%

Cn1c(=O)c2c(ncn2CC(=O)NCc2ccco2)n(C)c1=O [Compound 6]
protection against Aβ1-42-induced death ([7]; Aβ1-42 10 μM): failed to block

CN(C)CCCNC(=O)Cn1cnc2c1c(=O)n(C)c(=O)n2C [Compound 3]
effect of Ab 9651 on promotion of neuron survival by the substance [2]: completely blocked; also recorded: completely inhibits
survival versus CM in the presence of Ab 9651 [2]: not significant
increase in NFκB-p65 phosphorylation ([3]; 20 nM): approximately 1.5 fold
additive effect on survival with NGF ([4]; 5 nM compound along with 50 ng/ml NGF): no additive effect on survival
compound concentration at which binding curve differs from 0 nM curve (P<0.0001) ([8]; ANOVA with post-hoc Bonferroni/Dunn): ≥ 125 nM
Schild coefficient ([8]; Gaddum-Schild fit): 0.26 +/−0.01
shift of the NGF/p75NTR-Fc binding curve ([8]; increasing compound concentrations): significantly to the right
effect of p75NTR-deficiency on promotion of neuron survival by the substance [9]: completely inhibits
proNGF ELISA signal versus proNGF alone ([10]; P<0.01): significantly less than proNGF alone
decrement of proNGF binding to p75NTR ([10]; at the highest concentration (range 1500 nM to 10,000 nM)): approximately 30%
effect on NGF binding to TrkA-Fc [5]: did not affect; also recorded: no compound effects up to 10,000 nM
effect of PD98059 (ERK inhibitor) on survival promoted by the substance [11]: no significant decrease
effect of SN50 (NFκB translocation inhibitor) on survival promoted by the substance ([11]; SN50 2.5 μg/ml): significantly reduced
onset of AKT activation ([12]; 20 nM, relative to NGF): slower than that of NGF
inhibition of proNGF-induced oligodendrocyte death ([6]; 2.8 ng/ml (0.05 nM) proNGF, 24 h): significantly inhibited; also recorded: blocked cell death
promotion of oligodendrocyte cell death by compound alone ([6]; 24 h): did not promote cell death
protection against Aβ1-42-induced death ([7]; Aβ1-42 10 μM): blocks Aβ-induced death with a dose-response effect
EC50 ([7]; Hippocampal neuron, Aβ1-42 10 μM, read-out: EC50 for blocking Aβ-induced death): ~10 nM

NCCNc1ccc([N+](=O)O)c(N2CCCCC2)c1 [Compound 1]
activity in DRG neuronal survival [13]: active
neurotrophic activity (neuron survival response) [4]: active

N=C(N)NC(=N)NCCNC(=N)NC(=N)N [Compound 7]
activity in DRG neuronal survival [13]: active
neurotrophic activity (neuron survival response) [4]: active

B1: BDNF: brain-derived neurotrophic factor from Sigma-Aldrich (protein, UniProt P23560 19-247, looked up)
Neurotrophic factor BDNF …: APMKEANIRGQGGLAYPGVRTHGTLESVNGPKAGSRGLTSLADTFEHVIEELLDEDQKVRPNEENNKDADLYTSRVMLSSQVPLEPPLLFLLEEYKNYLDAANMSMRVRRHSDPARRGELSVCDSISEWVTAADKKTAVDMSGGTVTVLEKVPVSKGQLKQYFYETKCNPMGYTKEGCRGIDKRHWNSQCRTTQSYVRALTMDSKKRIGWRFIRIDTSCVCTLTIKRGR
effect of Ab 9651 on promotion of neuron survival by the substance [2]: partially blocked; also recorded: partially inhibits
survival versus CM in the presence of Ab 9651 [2]: significantly greater than CM+Ab 9651
effect of p75NTR-deficiency on promotion of neuron survival by the substance [9]: partial responsiveness; also recorded: partially inhibits
survival in p75NTR−/− cultures, comparison of treatments [9]: greater survival than NGF
ERK42 activation [14]: greater with BDNF and NGF treatment than with the p75-binding compounds; also recorded: prolonged activation
TrkB activation (Trk Y490 phosphorylation) [15]: robust Trk activation; also recorded: activated TrkB
effect of PD98059 (ERK inhibitor) on survival promoted by the substance [11]: significantly decreased; also recorded: small effects
AKT activation [12, 16]: substantially greater response
